CC#CCn1c(N2CCC[C@@H](N)C2)nc2c1c(=O)n(Cc1nc(C)c3ccccc3n1)c(=O)n2C
solubility (mole fraction)
Conditions	273.15 K	278.15 K	283.15 K	288.15 K	293.15 K	298.15 K	303.15 K	308.15 K	313.15 K
in acetonitrile	0.000425	0.000546	0.000675	0.000821	0.000974	0.00114	0.00132	0.00151	0.00172
in ethanol	0.000511	0.000637	0.000782	0.000947	0.00113	0.00137	0.00163	0.00194	0.00231
in isopropanol	0.000227	0.000282	0.000343	0.000421	0.000496	0.000578	0.000668	0.000765	0.000874
in methanol	0.00061	0.000778	0.00097	0.00121	0.00148	0.00179	0.00213	0.00254	0.00302
in n-propanol	0.000342	0.000403	0.000478	0.000573	0.00067	0.000794	0.00093	0.00108	0.00125

Reference: BigSolDB 2.1
